Data: US20140336216A1, “PHYSIOLOGICAL LIGANDS FOR GPR139” (Janssen Pharmaceutica NV, priority 2013, published 2014)
“And” between values parts separate entries of the source, which are not always exact repeats. Equal entries are not always repeated. Where two headings read alike, the source gives them in different places.

Assays:
[1] = system: GO2Q alone; experiment: GTPγS binding assay, control COS7 membranes expressing GO2Q alone (Ct-GO2Q); assay type: biochemical; settings: 1 mM final concentration; COS7 membranes expressing GO2Q alone; single wells of triplicate
Method: (§1) In order identify the ligands for GPR139 two improvements in the detection assay were made to allow for the ligands to be detected. First, we chose to use a GTPγS binding assay instead of using live cultured cells. The GTPγS binding assay is a cell free system that uses the cell membrane of the cell(s) of interest rather than the live cell(s). One advantage of this assay is that potential ligands present in the cell culture media are washed away when the cell membrane is prepared. This reduces the basal level of signal and increase the chance of detecting receptor ligands when assessing compounds that activate the receptor. Second, a GO2Q chimeric G-protein was created to be co-expressed with GPR139 in order to increase the signal-to-noise ratio in the GTPγS binding assay. Historically, the Gi, Go coupled GPCRs offer much greater signal-to-noise ratio in GTPγS binding studies. For Gs and Gq coupled GPCRs, although ligand-stimulated specific signals can be detected in a GTPγS binding assay, the signal-to-noise ratios are often very small. To address this a chimeric GO2-Gq chimeric G-protein, GO2Q, with the N-terminus from Go2 protein and the C-terminus from Gq protein.
(§2) To test for compounds that activate GPR139, different amino acids and their derivatives (Table 2) were tested as ligands in the GTPγS binding assay using cell membranes from COS7 cells co-expressing GPR139 and GO2Q. Cell membrane from COS7 cells expressing GO2Q alone or co-expressing other GPCRs were also tested in GTPγS binding assay in parallel as controls. Each compound was tested in triplicate.

[2] = molecular target: T1, GPR139 (Homo sapiens, UniProt Q6DWJ6); experiment: GTPγS binding assay, single-concentration screen, COS7 membranes co-expressing GPR139 and GO2Q; assay type: biochemical; design: expressed in transfected cells; host or cells: COS7 (membranes); settings: 1 mM final concentration; COS7 membranes co-expressing GPR139 and GO2Q; single wells of triplicate
T1 sequence (Q6DWJ6 1-353): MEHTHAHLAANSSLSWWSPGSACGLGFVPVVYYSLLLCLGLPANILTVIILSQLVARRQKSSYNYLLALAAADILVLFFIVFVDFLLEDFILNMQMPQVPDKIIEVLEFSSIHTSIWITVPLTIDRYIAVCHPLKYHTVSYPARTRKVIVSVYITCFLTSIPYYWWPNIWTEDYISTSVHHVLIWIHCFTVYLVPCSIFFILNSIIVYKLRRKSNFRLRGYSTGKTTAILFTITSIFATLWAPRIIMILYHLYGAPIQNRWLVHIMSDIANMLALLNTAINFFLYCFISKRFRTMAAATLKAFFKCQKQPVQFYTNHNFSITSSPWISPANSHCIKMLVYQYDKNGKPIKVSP
Method: as §1, §2

[3] = molecular target: T1, GPR139; experiment: Calcium mobilization assay (FLIPR), GPR139 expressed in HEK293 cells; assay type: cell-based; design: expressed in transfected cells; host or cells: HEK293 (transient)
Method: FIG. 3A and FIG. 3B: Provides the results of experiments conducted to determine whether Trp and its derivatives (FIG. 3A) and Phe and its derivatives (FIG. 3B) stimulate Ca^2+ mobilization in HEK293 cells expressing GPR139.
The active compounds were also tested in a calcium mobilization assay (FLIPR® assay). For these experiments human GPR139 was transiently expressed in HEK293 cells and calcium mobilization was stimulated using L-Trp, L-Phe or their derivatives. […] The concentrations of L-Trp and L-Phe in many cell culture media (for instance DMEM is about 80 μM and 750 μM respectively) are close to the EC50 values of L-Trp and L-Phe for GPR139. […] This may explain why GPR139 appeared constitutively active when recombinantly expressed in mammalian cells.
About 300 additional phenylalanine analogues have been tested for GPR139 activation using a calcium mobilization (FLIPR®) assay. The results of these experiments indicate that many of these analogues can also activate GPR139. Table 4 lists certain phenylalanine analogues that have been determined to activate GPR139 by calcium mobilization at a concentration of 300 μM (calcium mobilization is expressed as percentage of that observed for L-phenylalanine).

[4] = HEK293, 300 μM, calcium mobilization as percentage of that observed for L-phenylalanine, read-out: % L-phenylalanine at 300 μM (average), calcium mobilization
[5] = 300 μM, calcium mobilization as percentage of that observed for L-phenylalanine
[6] = HEK293, read-out: % L-phenylalanine at 300 μM (average), calcium mobilization

Molecule | Emax at 300 µM [3, 4] [%] | other results
N[C@@H](CC(=O)O)C(=O)O [Asp] |  | Activation levels (GTPγS binding), Ct-GO2Q [1]: 2177 and 2137 and 2132; Activation levels of GPR139 (GTPγS binding), GPR139-GO2Q [2]: 2758 and 2922 and 2925
CC(C)(C)c1ccc(C[C@H](N)C(=O)O)cc1 [4-tert-Butyl-L-phenylalanine] | 115 | 
O=C(O)[C@@H]1Cc2c([nH]c3ccccc23)CN1 [L-1,2,3,4-tetrahydronorharman-3-carboxylic acid] |  | % L-phenylalanine at 300 μM (average), calcium mobilization [3, 5]: 151 % L-phenylalanine
C[C@H](N)C(=O)O [Ala] |  | Activation levels (GTPγS binding), Ct-GO2Q [1]: 1903 and 2049 and 2139; Activation levels of GPR139 (GTPγS binding), GPR139-GO2Q [2]: 2363 and 2348 and 2439
O=C(O)[C@@H]1CCCN1 [Pro] |  | Activation levels (GTPγS binding), Ct-GO2Q [1]: 2256 and 2235 and 2329; Activation levels of GPR139 (GTPγS binding), GPR139-GO2Q [2]: 2719 and 2657 and 2786
N[C@H](Cc1cc(F)cc(F)c1)C(=O)O [3,5-Difluoro-D-phenylalanine] | 102 | 
S-(5-bromothienyl)-D-alanine |  | % L-phenylalanine at 300 μM (average), calcium mobilization [3, 5]: 154 % L-phenylalanine
N[C@@H](Cc1cccc(Cl)c1)C(=O)O [3-Chloro-L-phenylalanine] | 145 | 
S-Nitro-L-phenylalanine |  | % L-phenylalanine at 300 μM (average), calcium mobilization [3, 5]: 150 % L-phenylalanine
N[C@H](Cc1ccc(Cl)cc1)C(=O)O [4-Chloro-D-phenylalanine] | 110 | 
N[C@@H](CS)C(=O)O [Cys] |  | Activation levels (GTPγS binding), Ct-GO2Q [1]: 1928 and 2132 and 2114; Activation levels of GPR139 (GTPγS binding), GPR139-GO2Q [2]: 2168 and 2458 and 2336
N[C@H](CCCc1ccccc1)C(=O)O [D-2-Amino-5-phenyl-pentanoic acid] | 129 | 
CC(C)C[C@H](N)C(=O)O [Leu] |  | Activation levels (GTPγS binding), Ct-GO2Q [1]: 2194 and 2213 and 2167; Activation levels of GPR139 (GTPγS binding), GPR139-GO2Q [2]: 2621 and 2544 and 2437
N#Cc1cccc(C[C@@H](N)C(=O)O)c1 [3-Cyano-D-phenylalanine] | 93 | 
NCCc1ccc(O)cc1 [Tyramine] |  | Activation levels (GTPγS binding), Ct-GO2Q [1]: 2132 and 2277 and 2369; Activation levels of GPR139 (GTPγS binding), GPR139-GO2Q [2]: 2883 and 2932 and 2873
N[C@H](Cc1cccc(F)c1)C(=O)O [3-Fluoro-D-phenylalanine] | 94 | 
Cc1ccccc1C[C@@H](N)C(=O)O [2-Methyl-D-phenylalanine] | 109 | 
N[C@H](Cc1ccc(Cl)cc1Cl)C(=O)O [2,4-Dichloro-D-phenylalanine] | 135 | 
N[C@@H](Cc1ccc(Cl)cc1)C(=O)O [4-Chloro-L-phenylalanine] | 146 | 
N[C@@H](Cc1ccc(C(F)(F)F)cc1)C(=O)O [4-Trifluoromethyl-L-phenylalanine] | 150 | 

Molecule | Emax at 300 µM [3, 4] [%] | other results
N[C@@H](Cc1ccccc1C(F)(F)F)C(=O)O [2-Trifluoromethyl-L-phenylalanine] | 110 | 
Cc1cccc(C[C@H](N)C(=O)O)c1 [3-Methyl-L-phenylalanine] | 147 | 
Cc1ccc(C[C@@H](N)C(=O)O)cc1 [4-Methyl-D-phenylalanine] | 102 | 
N[C@H](Cc1cccc(Br)c1)C(=O)O [3-Bromo-D-phenylalanine] | 172 | 
Cc1ccc(C[C@@H](N)C(=O)O)c(C)c1 [2,4-Dimethyl-D-phenylalanine] | 101 | 
Cc1ccc(C[C@H](N)C(=O)O)c(C)c1 [2,4-Dimethyl-L-phenylalanine] | 113 | 
Cc1ccc(C[C@H](N)C(=O)O)cc1 [4-Methyl-L-phenylalanine] | 149 | 
N[C@H](C(=O)O)C(c1ccccc1)c1ccccc1 [3,3-Diphenyl-L-alanine] | 117 | 
N[C@@H](Cc1cccc(Br)c1)C(=O)O [3-Bromo-L-phenylalanine] | 167 | 
N[C@@H](Cc1ccccc1F)C(=O)O [2-Fluoro-L-phenylalanine] | 119 | 
N[C@H](Cc1ccc(Cl)c(Cl)c1)C(=O)O [3,4-Dichloro-D-phenylalanine] | 149 | 
N[C@@H](Cc1ccc(Br)cc1)C(=O)O [4-Bromo-L-phenylalanine] |  | Emax at 300 µM [3, 6]: 153%
N[C@@H](Cc1cccc(F)c1)C(=O)O [3-Fluoro-L-phenylalanine] | 114 | 
N[C@H](CCc1ccccc1)C(=O)O [d-Homo-phenylalanine] |  | % L-phenylalanine at 300 μM (average), calcium mobilization [3, 5]: 105 % L-phenylalanine
N[C@H](Cc1ccc(F)cc1)C(=O)O [4-Fluoro-D-phenylalanine] | 91 | 
N[C@@H](Cc1ccc([N+](=O)[O-])cc1[N+](=O)[O-])C(=O)O [2,4-Dinitro-L-phenylalanine] |  | Emax at 300 µM [3, 6]: 95%
N#Cc1cccc(C[C@H](N)C(=O)O)c1 [3-Cyano-L-phenylalanine] | 115 | 
N[C@@H](Cc1ccc(Cl)c(Cl)c1)C(=O)O [3,4-Dichloro-L-phenylalanine] | 149 | 
N[C@H](Cc1ccc(Br)cc1)C(=O)O [4-Bromo-D-phenylalanine] |  | Emax at 300 µM [3, 6]: 139%
Cc1cccc(C[C@@H](N)C(=O)O)c1 [3-Methyl-D-phenylalanine] | 150 | 

Molecule | Emax at 300 µM [3, 4] [%] | other results
Cc1ccccc1C[C@H](N)C(=O)O [2-Methyl-L-phenylalanine] | 134 | 
N[C@@H](Cc1ccc(Br)s1)C(=O)O [2-(5-bromothienyl)-L-alanine] |  | % L-phenylalanine at 300 μM (average), calcium mobilization [3, 5]: 151 % L-phenylalanine
N[C@H](Cc1ccc([N+](=O)[O-])cc1)C(=O)O [4-Nitro-D-phenylalanine] | 111 | 
N[C@H](Cc1c(F)c(F)c(F)c(F)c1F)C(=O)O [2,3,4,5,6-P entafluoro-D-phenylalanine] | 145 | 
N[C@@H](Cc1ccccc1Br)C(=O)O [2-Bromo-L-phenylalanine] | 168 | 
N[C@@H](Cc1ccc(I)cc1)C(=O)O [4-Iodo-L-phenylalanine] | 116 | 
C[C@](N)(Cc1ccc(F)cc1)C(=O)O [α-methyl-4-Fluoro-L-phenylalanine] | 125 | 
N[C@H](Cc1cccc(Cl)c1)C(=O)O [3-Chloro-D-phenylalanine] | 147 | 
N[C@H](Cc1cccc([N+](=O)[O-])c1)C(=O)O [3-Nitro-D-Phenylalanin] | 164 | 
CC(C)(C)OC(=O)N1Cc2ccccc2C[C@@H]1C(=O)O [(3R)-2-tert-butoxycarbony 1-3,4-dihydro-1H-isoquinoline-3-carboxylic acid] |  | % L-phenylalanine at 300 μM (average), calcium mobilization [3, 5]: 155 % L-phenylalanine
N[C@@H](Cc1ccc(F)cc1)C(=O)O [4-Fluoro-L-phenylalanine] | 132 | 
N[C@@H](Cc1cccc([N+](=O)[O-])c1)C(=O)O [3-Nitro-L-phenylalanine] | 131 | 
COc1ccc(C[C@H](N)C(=O)O)cc1 [4-Methoxy-L-phenylalanine] | 128 | 
N[C@@H](Cc1cccc(C(F)(F)F)c1)C(=O)O [3-Trifluoromethyl-L-phenylalanine] | 133 | 
N[C@@H](Cc1ccc(Cl)cc1Cl)C(=O)O [2,4-Dichloro-L-phenylalanine] | 122 | 
N[C@H](Cc1ccc(F)c(F)c1)C(=O)O [3,4-Difluoro-D-phenylalanine] | 121 | 
N[C@H](Cc1ccccc1Br)C(=O)O [2-Bromo-D-phenylalanine] | 135 | 
N[C@H](Cc1ccc(I)cc1)C(=O)O [4-Iodo-D-phenylalanine] | 125 | 
